Eight compounds from patent US9340590B2 (priority 2011, dated 2016) can be followed below.

The test has as its target hNav1.7 (Homo sapiens, UniProt Q15858). The test is described as follows: cell-based.

Where two headings read alike, the source gives them in different places. Positions of bridges follow the written chain, without caps; N, C: chain ends. Non-standard residues stand in square brackets, D forms with d. Residues, ends and D or L forms follow the SMILES beside them. 1Nal = N[C@@H](Cc1cccc2ccccc12)C(=O)O

Sequence of hNav1.7 (Q15858 whole entry, looked up): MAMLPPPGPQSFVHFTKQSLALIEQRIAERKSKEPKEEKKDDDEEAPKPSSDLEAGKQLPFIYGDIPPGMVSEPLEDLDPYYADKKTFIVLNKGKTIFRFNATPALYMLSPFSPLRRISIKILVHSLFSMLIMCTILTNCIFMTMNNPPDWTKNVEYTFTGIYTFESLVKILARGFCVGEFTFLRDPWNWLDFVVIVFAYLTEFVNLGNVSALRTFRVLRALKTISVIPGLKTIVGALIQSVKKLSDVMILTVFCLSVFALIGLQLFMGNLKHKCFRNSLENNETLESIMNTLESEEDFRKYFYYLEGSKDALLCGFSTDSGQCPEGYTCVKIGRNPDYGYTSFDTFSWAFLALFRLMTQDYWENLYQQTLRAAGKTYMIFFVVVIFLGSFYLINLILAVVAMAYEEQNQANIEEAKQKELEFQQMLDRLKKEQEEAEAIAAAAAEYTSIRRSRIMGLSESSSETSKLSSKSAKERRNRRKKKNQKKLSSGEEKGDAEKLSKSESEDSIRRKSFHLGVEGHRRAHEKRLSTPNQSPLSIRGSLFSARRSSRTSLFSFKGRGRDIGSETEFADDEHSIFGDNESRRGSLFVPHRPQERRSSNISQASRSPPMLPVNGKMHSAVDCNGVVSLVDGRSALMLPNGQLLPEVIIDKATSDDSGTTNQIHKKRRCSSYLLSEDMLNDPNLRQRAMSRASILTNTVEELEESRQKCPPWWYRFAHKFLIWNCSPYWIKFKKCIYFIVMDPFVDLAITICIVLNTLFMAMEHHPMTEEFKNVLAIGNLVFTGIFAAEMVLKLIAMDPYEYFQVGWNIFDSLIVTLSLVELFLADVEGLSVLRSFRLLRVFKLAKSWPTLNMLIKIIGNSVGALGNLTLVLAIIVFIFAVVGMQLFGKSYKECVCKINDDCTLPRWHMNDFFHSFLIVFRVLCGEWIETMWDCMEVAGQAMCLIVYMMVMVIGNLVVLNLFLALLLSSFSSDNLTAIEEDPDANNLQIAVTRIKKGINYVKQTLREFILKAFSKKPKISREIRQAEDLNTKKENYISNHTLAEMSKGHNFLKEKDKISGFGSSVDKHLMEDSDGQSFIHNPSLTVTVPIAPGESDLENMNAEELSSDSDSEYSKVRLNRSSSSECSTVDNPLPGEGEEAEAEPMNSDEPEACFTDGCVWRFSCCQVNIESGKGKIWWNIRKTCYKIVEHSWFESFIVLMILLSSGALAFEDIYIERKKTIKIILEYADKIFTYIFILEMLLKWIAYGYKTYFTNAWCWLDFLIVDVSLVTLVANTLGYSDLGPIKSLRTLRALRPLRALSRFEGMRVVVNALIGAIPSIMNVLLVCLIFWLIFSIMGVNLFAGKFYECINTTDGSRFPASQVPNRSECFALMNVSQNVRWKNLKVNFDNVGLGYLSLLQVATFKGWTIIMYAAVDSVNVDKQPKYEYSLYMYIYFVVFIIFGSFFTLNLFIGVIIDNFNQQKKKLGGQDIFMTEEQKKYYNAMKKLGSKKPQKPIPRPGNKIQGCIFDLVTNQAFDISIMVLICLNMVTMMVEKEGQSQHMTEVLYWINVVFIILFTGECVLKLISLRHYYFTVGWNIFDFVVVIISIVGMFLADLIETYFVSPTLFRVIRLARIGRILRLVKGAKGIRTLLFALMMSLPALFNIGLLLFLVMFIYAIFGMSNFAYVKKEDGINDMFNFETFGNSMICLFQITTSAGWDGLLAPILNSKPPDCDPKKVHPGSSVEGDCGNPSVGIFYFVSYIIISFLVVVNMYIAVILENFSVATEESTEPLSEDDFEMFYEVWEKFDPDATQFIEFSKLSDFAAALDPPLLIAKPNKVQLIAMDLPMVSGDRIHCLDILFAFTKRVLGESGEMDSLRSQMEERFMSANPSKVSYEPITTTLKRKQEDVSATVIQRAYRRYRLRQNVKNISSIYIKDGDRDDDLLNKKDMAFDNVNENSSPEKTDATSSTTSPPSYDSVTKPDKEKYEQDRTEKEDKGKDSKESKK

What is called IC50 is the concentration that inhibits the measured activity by half. `CC[C@H](C)[C@@H]1NC(=O)[C@@H]2CSSC[C@@H]3NC(=O)[C@H](C(C)C)NC(=O)[C@H](CC(C)C)NC(=O)[C@H](CC(N)=O)NC(=O)[C@@H]4CCCN4C(=O)[C@H](CCCNC(=N)N)NC(=O)[C@H](CSSC[C@H](NC(=O)[C@@H](N)CC(=O)O)C(=O)N[C@@H](CC(C)C)C(=O)NCC(=O)N[C@@H](Cc4ccccc4)C(=O)N[C@@H](CCSC)C(=O)N[C@@H](CCCNC(=N)N)C(=O)N[C@@H](CCCCN)C(=O)N2)NC(=O)[C@H](CSSC[C@@H](C(=O)N[C@@H](CCCCN)C(=O)N[C@@H](Cc2ccc(O)cc2)C(=O)N[C@H](C(=O)N[C@@H](Cc2ccccc2)C(N)=O)C(C)C)NC(=O)[C@H](Cc2c[nH]c4ccccc24)NC(=O)[C@H](CC(=O)O)NC(=O)[C@H](Cc2cnc[nH]2)NC(=O)[C@H]([C@@H](C)O)NC(=O)[C@H](CCCNC(=N)N)NC(=O)[C@H](CO)NC3=O)NC(=O)[C@H](CCCCN)NC(=O)[C@H](CC(=O)O)NC(=O)[C@H](CC(N)=O)NC(=O)[C@H](CC(=O)O)NC(=O)[C@@H]2CCCN2C1=O` [[Asp28]GpTx-1(1-34)] (H-DCLGFMRKCIPDNDKCCRPNLVCSRTHDWCKYVF-NH2; disulfide 2-17, 9-23, 16-30) displayed an IC50 (Nav1.7 Use IC50) of 0.015 µM.
For `CC[C@H](C)[C@@H]1NC(=O)[C@@H]2CSSC[C@@H]3NC(=O)[C@H](C(C)C)NC(=O)[C@H](CC(C)C)NC(=O)[C@H](CC(N)=O)NC(=O)[C@@H]4CCCN4C(=O)[C@H](CCCNC(=N)N)NC(=O)[C@H](CSSC[C@H](NC(=O)[C@@H](N)CC(=O)O)C(=O)N[C@@H](CC(C)C)C(=O)NCC(=O)N(C)[C@@H](CC(C)C)C(=O)N[C@@H](CCSC)C(=O)N[C@@H](CCCNC(=N)N)C(=O)N[C@@H](CCCCN)C(=O)N2)NC(=O)[C@H](CSSC[C@@H](C(=O)N[C@@H](CCCCN)C(=O)N[C@@H](Cc2ccc(O)cc2)C(=O)N[C@H](C(=O)N[C@@H](Cc2ccccc2)C(N)=O)C(C)C)NC(=O)[C@H](Cc2c[nH]c4ccccc24)NC(=O)[C@H](CCCCN)NC(=O)[C@H](Cc2cnc[nH]2)NC(=O)[C@H]([C@@H](C)O)NC(=O)[C@H](CCCNC(=N)N)NC(=O)[C@H](CO)NC3=O)NC(=O)[C@H](CCCCN)NC(=O)[C@H](CC(=O)O)NC(=O)[C@H](CC(N)=O)NC(=O)[C@H](CC(=O)O)NC(=O)[C@@H]2CCCN2C1=O` [[NMeLeu5]GpTx-1(1-34)], the IC50 (Nav1.7 Use IC50) was determined as 0.026 µM.
In the case of `CC[C@H](C)[C@@H]1NC(=O)[C@@H]2CSSC[C@@H]3NC(=O)[C@H](C(C)C)NC(=O)[C@H](CC(C)C)NC(=O)[C@H](CC(N)=O)NC(=O)[C@@H]4CCCN4C(=O)[C@H](CCCNC(=N)N)NC(=O)[C@H](CSSC[C@H](NC(=O)[C@@H](N)CC(=O)O)C(=O)N[C@@H](CC(C)C)C(=O)NCC(=O)N[C@@H](Cc4ccccc4)C(=O)N[C@@H](CCSC)C(=O)N[C@@H](CCCNC(=N)N)C(=O)N[C@@H](CCCCN)C(=O)N2)NC(=O)[C@H](CSSC[C@@H](C(=O)N[C@@H](CCCCN)C(=O)N[C@@H](Cc2ccc(O)cc2)C(=O)N[C@H](C(=O)N[C@@H](Cc2ccccc2)C(N)=O)C(C)C)NC(=O)[C@H](Cc2c[nH]c4ccccc24)NC(=O)[C@H](CCCCN)NC(=O)[C@H](Cc2c[nH]cn2)NC(=O)[C@H](CCCNC(=N)N)NC(=O)[C@H](CCCNC(=N)N)NC(=O)[C@H](CO)NC3=O)NC(=O)[C@H](CCCCN)NC(=O)[C@H](CC(=O)O)NC(=O)[C@H](CC(N)=O)NC(=O)[C@H](CC(=O)O)NC(=O)[C@@H]2CCCN2C1=O` [[Arg26]GpTx-1(1-34)] (H-DCLGFMRKCIPDNDKCCRPNLVCSRRHKWCKYVF-NH2; disulfide 2-17, 9-23, 16-30), where the note is “read-out: Nav1.7 Use IC50”, the IC50 is 0.005 µM.
`CC[C@H](C)[C@@H]1NC(=O)[C@@H]2CSSC[C@@H]3NC(=O)[C@H](C(C)C)NC(=O)[C@H](CC(C)C)NC(=O)[C@H](CC(N)=O)NC(=O)[C@@H]4CCCN4C(=O)[C@H](CCCNC(=N)N)NC(=O)[C@H](CSSC[C@H](NC(=O)[C@@H](N)CC(=O)O)C(=O)N[C@@H](CC(C)C)C(=O)NCC(=O)N[C@@H](C(C)(C)C)C(=O)N[C@@H](CCSC)C(=O)N[C@@H](CCCNC(=N)N)C(=O)N[C@@H](CCCCN)C(=O)N2)NC(=O)[C@H](CSSC[C@@H](C(=O)N[C@@H](CCCCN)C(=O)N[C@@H](Cc2ccc(O)cc2)C(=O)N[C@H](C(=O)N[C@@H](Cc2ccccc2)C(N)=O)C(C)C)NC(=O)[C@H](Cc2c[nH]c4ccccc24)NC(=O)[C@H](CCCCN)NC(=O)[C@H](Cc2cnc[nH]2)NC(=O)[C@H]([C@@H](C)O)NC(=O)[C@H](CCCNC(=N)N)NC(=O)[C@H](CO)NC3=O)NC(=O)[C@H](CCCCN)NC(=O)[C@H](CC(=O)O)NC(=O)[C@H](CC(N)=O)NC(=O)[C@H](CC(=O)O)NC(=O)[C@@H]2CCCN2C1=O` [[Tle5]GpTx-1(1-34)] returned an IC50 (Nav1.7 Use IC50) of 0.023 µM.
Compound `CC[C@H](C)[C@@H]1NC(=O)[C@@H]2CSSC[C@@H]3NC(=O)[C@H](C(C)C)NC(=O)[C@H](CC(C)C)NC(=O)[C@H](CC(N)=O)NC(=O)[C@@H]4CCCN4C(=O)[C@H](CCCNC(=N)N)NC(=O)[C@H](CSSC[C@H](NC(=O)[C@@H](N)CC(=O)O)C(=O)N[C@@H](CC(C)C)C(=O)NCC(=O)N[C@@H](C4CCCCC4)C(=O)N[C@@H](CCSC)C(=O)N[C@@H](CCCNC(=N)N)C(=O)N[C@@H](CCCCN)C(=O)N2)NC(=O)[C@H](CSSC[C@@H](C(=O)N[C@@H](CCCCN)C(=O)N[C@@H](Cc2ccc(O)cc2)C(=O)N[C@H](C(=O)N[C@@H](Cc2ccccc2)C(N)=O)C(C)C)NC(=O)[C@H](Cc2c[nH]c4ccccc24)NC(=O)[C@H](CCCCN)NC(=O)[C@H](Cc2cnc[nH]2)NC(=O)[C@H]([C@@H](C)O)NC(=O)[C@H](CCCNC(=N)N)NC(=O)[C@H](CO)NC3=O)NC(=O)[C@H](CCCCN)NC(=O)[C@H](CC(=O)O)NC(=O)[C@H](CC(N)=O)NC(=O)[C@H](CC(=O)O)NC(=O)[C@@H]2CCCN2C1=O` [[Chg5]GpTx-1(1-34)] showed an IC50 (Nav1.7 Use IC50) of 0.007 µM.
Turning to `CC[C@H](C)[C@@H]1NC(=O)[C@@H]2CSSC[C@@H]3NC(=O)[C@H](C(C)C)NC(=O)[C@H](CC(C)C)NC(=O)[C@H](CC(N)=O)NC(=O)[C@@H]4CCCN4C(=O)[C@H](CCCNC(=N)N)NC(=O)[C@H](CSSC[C@H](NC(=O)[C@@H](N)CC(=O)O)C(=O)N[C@@H](CC(C)C)C(=O)NCC(=O)N[C@@H](Cc4ccccc4)C(=O)N[C@@H](CCSC)C(=O)N[C@@H](CCCNC(=N)N)C(=O)N[C@@H](CCCCN)C(=O)N2)NC(=O)[C@H](CSSC[C@@H](C(=O)N[C@@H](CCCCN)C(=O)N[C@@H](Cc2cccc4ccccc24)C(=O)N[C@H](C(=O)N[C@@H](Cc2ccccc2)C(N)=O)C(C)C)NC(=O)[C@H](Cc2c[nH]c4ccccc24)NC(=O)[C@H](CCCCN)NC(=O)[C@H](Cc2c[nH]cn2)NC(=O)[C@H]([C@@H](C)O)NC(=O)[C@H](CCCNC(=N)N)NC(=O)[C@H](CO)NC3=O)NC(=O)[C@H](CCCCN)NC(=O)[C@H](CC(=O)O)NC(=O)[C@H](CC(N)=O)NC(=O)[C@H](CC(=O)O)NC(=O)[C@@H]2CCCN2C1=O` [[1-Nal32]GpTx-1(1-34)] (H-DCLGFMRKCIPDNDKCCRPNLVCSRTHKWCK[1Nal]VF-NH2; disulfide 2-17, 9-23, 16-30), the half-maximal inhibitory concentration (IC50) (read-out: Nav1.7 Use IC50) came to 0.004 µM.
For `CCC[C@@H]1NC(=O)CNC(=O)[C@H](CC(C)C)NC(=O)[C@@H](NC(=O)[C@@H](N)CC(=O)O)CSSC[C@@H]2NC(=O)[C@@H]3CSSC[C@@H](C(=O)N[C@@H](CCCCN)C(=O)N[C@@H](Cc4ccc(O)cc4)C(=O)N[C@H](C(=O)N[C@@H](Cc4ccccc4)C(N)=O)C(C)C)NC(=O)[C@H](Cc4c[nH]c5ccccc45)NC(=O)[C@H](CCCCN)NC(=O)[C@H](Cc4cnc[nH]4)NC(=O)[C@H]([C@@H](C)O)NC(=O)[C@H](CCCNC(=N)N)NC(=O)[C@H](CO)NC(=O)[C@H](CSSC[C@H](NC(=O)[C@H](CCCCN)NC(=O)[C@H](CCCNC(=N)N)NC(=O)[C@H](CCSC)NC1=O)C(=O)N[C@@H]([C@@H](C)CC)C(=O)N1CCC[C@H]1C(=O)N[C@@H](CC(=O)O)C(=O)N[C@@H](CC(N)=O)C(=O)N[C@@H](CC(=O)O)C(=O)N[C@@H](CCCCN)C(=O)N3)NC(=O)[C@H](C(C)C)NC(=O)[C@H](CC(C)C)NC(=O)[C@H](CC(N)=O)NC(=O)[C@@H]1CCCN1C(=O)[C@H](CCCNC(=N)N)NC2=O` [[Nva5]GpTx-1(1-34)], where the note is “Nav1.7 Use IC50”, half-maximal inhibition (IC50) was put at 0.038 µM.
Under “Nav1.7 Use IC50”, `CSCC[C@@H]1NC(=O)[C@H](Cc2ccccc2)NC(=O)CNC(=O)[C@H](CC(C)C)NC(=O)[C@@H](NC(=O)[C@@H](N)CC(=O)O)CSSC[C@@H]2NC(=O)[C@@H]3CSSC[C@@H](C(=O)N[C@@H](CCCCN)C(=O)N[C@@H](Cc4ccc(O)cc4)C(=O)N[C@H](C(=O)N[C@@H](Cc4ccccc4)C(N)=O)C(C)C)NC(=O)[C@H](Cc4c[nH]c5ccccc45)NC(=O)[C@H](CCCCN)NC(=O)[C@H](Cc4cnc[nH]4)NC(=O)[C@H]([C@@H](C)O)NC(=O)[C@H](CCCNC(=N)N)NC(=O)[C@H](CO)NC(=O)[C@H](CSSC[C@H](NC(=O)[C@H](CCCCN)NC(=O)[C@H](CCCNC(=N)N)NC1=O)C(=O)N[C@@H](CC(=O)O)C(=O)N1CCC[C@H]1C(=O)N[C@@H](CC(=O)O)C(=O)N[C@@H](CC(N)=O)C(=O)N[C@@H](CC(=O)O)C(=O)N[C@@H](CCCCN)C(=O)N3)NC(=O)[C@H](C(C)C)NC(=O)[C@H](CC(C)C)NC(=O)[C@H](CC(N)=O)NC(=O)[C@@H]1CCCN1C(=O)[C@H](CCCNC(=N)N)NC2=O` [[Asp10]GpTx-1(1-34)] (H-DCLGFMRKCDPDNDKCCRPNLVCSRTHKWCKYVF-NH2; disulfide 2-17, 9-23, 16-30) gave an IC50 of 0.003 µM.
